Test results from patent publication US11529318B2, “Devices and methods for local delivery of tacrolimus” (UNIVERSITY OF PITTSBURGH—OF THE COMMONWEALTH SYSTEM OF …, priority 2017, dated 2022).

Assays:
[1] = RGC viability analysis (calcein/propidium iodide live/dead kit); type: cell-based, rat; conditions: both sexes, Sprague-Dawley, rat, primary retinal ganglion cells (RGCs), 3 days in vitro
Experimental: (§1) Retinal ganglion cell isolation. RGCs were isolated from female and male postnatal day three (P3) Sprague-Dawley rat pups, purified by immunopanning, and cultured in NB-SATO media as previously described (Barres, Silverstein et al. 1988). The RGCs were seeded (5×10^3/cm^2) on cell culture plates coated with poly-D-lysine (70 kDa, 10 μg/mL; Sigma-Aldrich Corp., St. Louis, Mo., USA) and laminin (2 μg/mL, Sigma-Aldrich Corp.), and maintained at 37° C. in 10% CO2 for 3 days.
(§2) RGC viability analysis. To analyze RGC viability a calcein and propidium iodide based live/dead kit was used after 3 DIV per the manufacturer's instructions (Life Technologies, R37601). Briefly, RGC cultures were incubated in the live/dead reagent for 15 minutes at room temperature and five random fields per well were imaged at 20× using standard epi-fluorescence fluorescein and rhodamine filter sets (Zeiss, Axio Observer). Live and dead cells were analyzed using ImageJ (National Institutes of Health, Bethesda, Md., USA). All graphical data represents three independent experimental repeats.

[2] = system: retinal ganglion cells (RGCs); test: as above; type: cell-based, rat; conditions: for IC50: primary P3 rat RGCs, 3 days in vitro, 0.1 to 100 μM
Experimental: as §1, §2

in vivo = test: in vivo; design: species or system Sprague-Dawley rats; conditions: Sprague-Dawley, rat, 2.2 mg/kg/day, tacrolimus concentration
Experimental: Optic nerve ischemia and PEUU-Tac matrix application. Animals were anesthetized by intraperitoneal injection of 45:10 mg/kg ketamine/xylazine cocktail. Once anaesthetized, the optic nerve was exposed by making a small incision and then creating a nearly bloodless plane through the conjunctiva by blunt dissection with #5 forceps. The surrounding muscle and connective tissue around the optic nerve were then gently separated until the optic nerve was exposed. Using a Yasagril aneurysm clip, the right optic nerve was clamped ˜2 mm behind the globe for 10 seconds (Sarikcioglu, Demir et al. 2007). After removing the clip, ophthalmic artery integrity was confirmed by visualization. For some animals, the optic nerve sheath was fenestrated at the injury site by making an 1-2 mm incision. For animals receiving PEUU-Tac, a 1×5 mm section cut from a 10 mg PEUU-Tac matrix was sutured around the injury site and then secured by suturing to the outer sheath. After each optic nerve procedure, the conjunctiva was sutured and antibiotic ointment (Gentamicin, Bausch & Lomb, Tampa, Fla.) was applied to the eye. In total, twenty-eight animals received acute optic nerve ischemia to the right optic nerve with or without a PEUU-Tac wrap. The experimental groups were as follows: • (1) Five animals received a 1 mm×5 mm section of a 10 mg PEUU-Tac sheet sutured around the nerve. • (2) Five animals received a 1 mm×5 mm section of a 10 mg PEUU-Tac matrix implanted subcutaneously in the lower right quadrant of the abdomen. • (3) Five animals received daily intraperitoneal injections of tacrolimus (2.2 mg/kg/day) for 14 days with the first injection administered immediately after ischemic injury. • (4) Five animals were used as a sham control.
Blood and tissue collection. Twenty-four hours after injury, blood samples were drawn from all four groups via the tail vein. Four of the eight animals treated with PEUU-Tac were sacrificed at 24 hours and sixteen animals were sacrificed at 14 days. Blood, both retinas and both optic nerves were collected from all animals.
Tacrolimus tissue extraction and reconstitution in blood. Tissue (retina and optic nerve) samples were weighted and homogenized with organic solvent (methanol, 100%) using Mini-BeadBeater-1 sonicator for cell disruption and left over night to assure complete tacrolimus extraction. The homogenate was centrifuged at 2100±100 rpm for 10 min. The methanol was transferred to a microcentrifuge tube and evaporated using a sample concentrator. The drug residue was reconstituted with 1 mL of blood. Tacrolimus in the blood was analyzed as described below and tissue drug concentration was expressed in ng/g of tissue weight.
Quantification of tacrolimus in blood by HPLC-tandem mass spectrometry. […]

[3] = reference range; cited from earlier work

concentration at 14 days (in vivo; left optic nerve): 1700 ng/g
concentration at 14 days (in vivo; left retina): 618 ng/g
concentration at 14 days (in vivo; right optic nerve): 2200 ng/g
concentration at 14 days (in vivo; right retina): 530 ng/g
Compound: C=CC[C@@H]1/C=C(\C)C[C@H](C)C[C@H](OC)[C@H]2O[C@@](O)(C(=O)C(=O)N3CCCC[C@H]3C(=O)O[C@H](/C(C)=C/[C@@H]3CC[C@@H](O)[C@H](OC)C3)[C@H](C)[C@@H](O)CC1=O)[C@H](C)C[C@@H]2OC [tacrolimus]
viability at 3 days, 0.5 μM ([1]; 0.5 μM tacrolimus): 87.4%
viability at 3 days, 50 μM ([1]; 50 μM tacrolimus): 0%
increase in RGC viability versus EtOH vehicle (70%) ([2]; 0.5 μM tacrolimus): 17.4%
IC50 ([2]; Rattus norvegicus, 72 h): 24.2 µM
effect of dosage on neuron survival (live/dead study) ([2]; discussion statement): no significant effect
IC50 [2]: 25 µM
therapeutic trough levels (blood) [3]: 5 to 10 ng/mL
